From article PMC8495455, “Discovery of a transdermally deliverable pentapeptide for activating AdipoR1 to promote hair growth” (EMBO Molecular Medicine, 2021) come the findings set out here.

For assay [1], the system named is PDGFA mRNA. The assay is described as follows: qRT-PCR growth factor gene expression in DP cells, PDGFA. The format is cell-based, human. The conditions noted are these: for mRNA_PDGFA: DP cells. The source says:
Next, we investigated the downstream effects of P5 on hair growth factor genes and proteins in DP cells. […] We tested whether P5 can also increase the mRNA levels and proteins of hair growth factors in DP cells: IGF‐1, VEGF, HGF, platelet‐derived growth factor alpha (PDGFA), and fibroblast growth factor (FGF) 7, which are known to induce or maintain the anagen phase of the hair cycle (Jindo et al, [1994]; Philpott et al, [1994]; Yano et al, [2001]; Jang, [2005]; Tomita et al, [2006]; Iino et al, [2007]).
Total RNA was isolated from P5‐treated DP cells using RNAiso Plus (#9109; TaKaRa). We used the total RNA (1 µg) for cDNA synthesis using a RevertAid First Strand cDNA Synthesis Kit (Thermo Fisher) according to the manufacturer's instructions. The mRNA expression levels were quantified on a 7500 Real‐time PCR System (Thermo Fisher) using TB Green Premix Ex Taq (TaKaRa Bio): human IGF‐1, VEGF, HGF, PDGFA, FGF7, and glyceraldehyde 3‐phosphate dehydrogenase (GAPDH) (Appendix Table S2). The relative expression levels of each gene were determined by the 2^‐ΔΔCT method.
A general note: In qPCR the cycle at which signal appears reflects the starting amount.

The test system of assay [2] is AMPK phosphorylation through AdipoR1 in DP cells. The assay is described as follows: Western blot p-AMPK in AdipoR1 siRNA-transfected DP cells. Format: cell-based, human. The source says: Following the confirmation of the molecular interaction between AdipoR1 and P5, we evaluated the activation of the intracellular signaling pathway by P5. We investigated whether APN treatment on ORS and DP cells could activate AMPK or ERK signaling pathways, which are previously known to be downstream effectors of AdipoR1 (Mao et al, [2006]; Deepa & Dong, [2009]; Shibata et al, [2012]). […] Next, for determination of whether both P5 and APN mediates the phosphorylation of AMPK through AdipoR1 in ORS and DP cells, the cells were transfected with AdipoR1 siRNA (Appendix Fig S1). […] Collectively, P5 activates AMPK signaling pathway through AdipoR1 in ORS and DP cells in vitro.
All transfections were performed using Lipofectamine 2000 following the manufacturer’s instructions (#11668019; Thermo Fisher). Human DP and ORS cells were cultured without antibiotics until reaching 50% confluency. AdipoR1 or scrambled siRNA (Bioneer) was used. The culture medium was changed 6 h after transfection, and the cells were incubated for another 24 h before subsequent analyses.
Human ORS and DP cells or skin tissue were lysed (RIPA lysis buffer; #20‐188; Merck Millipore). […] Antibody‐antigen complexes detected by enhanced chemiluminescent substrate (Thermo Fisher) were captured and quantified by Amersham imager 680 systems (GE Healthcare).

Assay [3] concerns p-AMPK in HF cells of Adipoq−/− mice. The assay is described as follows: IF p-AMPK in HF cells of Adipoq−/− mice after topical P5. The conditions noted are these: Adipoq−/− mouse, topical 0.1 mM P5. Format: in vivo. The source says: We also evaluated P5 effect in Adipoq ^−/− mouse (Ma et al, [2002]). […] Skin pigmentation was prominent in P5‐treated Adipoq ^−/− mice at day 14 (Fig 4E). […] At day 35, unlike vehicle‐treated Adipoq ^−/− mice showing little pigmentation, P5‐treated Adipoq ^−/− mice manifested hairs with pigmentation (Fig 4E). […] The DP cells in P5‐treated Adipoq ^−/− mice expressed versican (Fig 4G).
Paraffin‐embedded mouse cutaneous back tissue was sectioned (4 μm thickness) and stained with hematoxylin and eosin. […] IF intensity was observed and recorded with a Nikon Eclipse Ni‐E fluorescence microscope (Nikon).
For the hair cycle modulation experiment, Adipoq ^−/− (stock #008195; JAX) (Ma et al, [2002]), Adipor1 ^−/− (Yamauchi et al, [2007]; Okada‐Iwabu et al, [2013]), or C57BL/6 (KOATECH) female mice was used (Müller‐Röver et al, [2001]). […] The mouse hair growth score (a value from 0 to 100 based on the skin pigmentation and hair shaft density) was monitored and documented at designated days with the experimenters being blind to the conditions, following a previous study (Chai et al, [2019]). […] On day 35, we obtained dorsal cutaneous tissue for histological analysis: anagen induction scores (calculated using an assigned arbitrary score; telogen = 1, anagen I–VI = 2–7) (Müller‐Röver et al, [2001]).

Turning to “GLYYF [P5, GST-fused (GST-P5) in pulldown assays]”, the mRNA_PDGFA in assay [1] (P5 5μM, relative to Control = 1, replicate 1) came to 1.237; in assay [1] (P5 5μM, relative to Control = 1, replicate 2), 1.013; in assay [1] (P5 5μM, relative to Control = 1, replicate 3) it was 1.221; in assay [1] (P5 5μM, relative to Control = 1, replicate 4), 1.252; in assay [1] (P5 25μM, relative to Control = 1, replicate 1) it was 1.5777; in assay [1] (P5 25μM, relative to Control = 1, replicate 2), 1.8805. Besides, the mRNA_PDGFA in assay [1] (P5 25μM, relative to Control = 1, replicate 3) is 1.22; in assay [1] (P5 25μM, relative to Control = 1, replicate 4), 1.95. Further, in assay [1] (P5-treated DP cells, n = 4), the “PDGFA mRNA expression” value was “significantly increased”. Further, in assay [2], the “p-AMPK intensity after AdipoR1 siRNA transfection, DP cells” value is “intensity was reduced”. Also, the “p-AMPK in ORS cells of telogen HFs” value in assay [3] was “upregulation”.
